pEC50: −log10 of the molar value.
Columns and labels:
[1] = Inhibition of LPS-induced NO production in mouse BV-2 cells incubated for 24 hrs by Griess reagent based assay; assay type: functional, cell-based; details: for pEC50: Mus musculus, BV-2, 24 h, read-out: EC50; for EC50: bv-2
BV-2 [2] = experiment: Cytotoxicity against LPS-stimulated mouse BV-2 cells assessed as reduction in cell viability at 20 uM measured after 24 hrs by MTT assay relative to control; assay type: cell-based; details: bv-2, 24 h
BV-2 [3] = experiment: Antineuroinflammatory activity in LPS- stimulated mouse BV-2 cells assessed as fold increase in HO-1 expression at 10 uM measured after 24 hrs by immunoblotting analysis relative to control; assay type: functional
[4] = Inhibition of iNOS expression in LPS-stimulated mouse BV-2 cells at 10 uM measured after 24 hrs by western blot analysis relative to control; assay type: functional
[5] = Effective permeability of the compound in PBS/EtOH buffer (9:1) at […] after 10 hrs by HPLC-UV based PAMPA-BBB assay; assay type: ADME; details: read-out: permeability

pEC50 [1]	SMILES	Activity (BV-2 [2]) [%]	further results
4.84	C=C1C(=O)O[C@@H]2CC(CN3CCOCC3)=C([C@@H](C)CCCOC(C)=O)[C@@H](OC(C)=O)[C@H]12	91.3	–
4.50	CC(=O)OCCC[C@H](C)C1=C(C)C[C@H]2OC(=O)/C(=C/c3ccc(O)cc3)[C@H]2[C@@H]1O	102.5	–
–	C#Cc1ccc(-c2cn([C@@H]3C(C)=C([C@@H](C)CCCOC(C)=O)[C@@H](OC(C)=O)[C@@H]4C(=C)C(=O)O[C@@H]43)nn2)cc1	38.5	EC50 [1]: Not Active
5.35	C=C1C(=O)O[C@H]2[C@@H]1[C@H](OC(C)=O)C([C@@H](C)CCCOC(C)=O)=C(C)[C@@H]2c1ccccc1	91.7	–
–	C=C1C(=O)O[C@H]2[C@@H]1[C@H](OC(C)=O)C([C@@H](C)CCCOC(C)=O)=C(C)[C@H]2n1cc(C(=O)OC)nn1	63.8	EC50 [1]: Not Active
< 4.30	CC(=O)OCCC[C@H](C)C1=C(C)C[C@H]2OC(=O)[C@]3(CC(c4ccc5ccccc5c4)=NO3)[C@H]2[C@@H]1OC(C)=O	95.4	–
5.19	C=C1C(=O)O[C@@H]2C[C@@]3(C)O[C@@]3([C@@H](C)CCCOC(C)=O)[C@@H](O)[C@H]12	93.4	–
5.20	C=C1C(=O)O[C@@H]2CC(C)=C([C@@H](C)CCCOC(C)=O)[C@@H](OC(C)=O)[C@H]12	66.5	fold change (FC) (BV-2 [3]): 4; inhibition at 10 µM [4]: 59.7%; Papp at 10 h [5]: 12.3 ×10⁻⁶ cm/s
4.41	CC(=O)OCCC[C@H](C)C1=C(C)C[C@H]2OC(=O)[C@]3(CC(c4ccc(F)cc4)=NO3)[C@H]2[C@@H]1OC(C)=O	101.5	–
4.48	CC(=O)OCCC[C@H](C)C1=C(C)C[C@H]2OC(=O)[C@]3(CC(c4ccccc4)=NO3)[C@H]2[C@@H]1OC(C)=O	96.6	–
–	C=C1C(=O)O[C@H]2[C@@H]1[C@H](OC(C)=O)C([C@@H](C)CCCOC(C)=O)=C(C)[C@H]2n1cc(-c2ccccc2)nn1	57.3	EC50 [1]: Not Active
< 4.30	COc1ccc(C2=NO[C@]3(C2)C(=O)O[C@@H]2CC(C)=C([C@@H](C)CCCOC(C)=O)[C@@H](OC(C)=O)[C@@H]23)cc1	96.5	–
< 4.30	CC(=O)OCCC[C@H](C)C1C(C)C[C@H]2OC(=O)C(C)[C@H]2[C@@H]1O (mixture of isomers)	98.5	–
< 4.30	CC(=O)OCCC[C@H](C)C1=C(C)C[C@H]2OC(=O)[C@]3(CC(c4ccccc4Br)=NO3)[C@H]2[C@@H]1OC(C)=O	98.6	–
–	C=C1C[C@H]2OC(=O)C(=C)[C@H]2C=C1[C@@H](C)CCCOC(C)=O	54.2	EC50 [1]: Not Active
< 4.30	CC(=O)OCCC[C@H](C)C1=C(C)C[C@H]2OC(=O)[C@@H](C)[C@H]2[C@@H]1O	101.2	–
4.74	C=C1C(=O)O[C@@H]2CC(CN3CCCCC3)=C([C@@H](C)CCCOC(C)=O)[C@@H](OC(C)=O)[C@H]12	92.8	–

pEC50 [1]	SMILES	Activity (BV-2 [2]) [%]	further results
–	NC(=O)N1c2ccccc2C=Cc2ccccc21 [CARBAMAZEPINE]	–	Papp at 10 h [5]: 10.7 ×10⁻⁶ cm/s
4.79	CC(=O)OCCC[C@H](C)C1=C(C)C[C@H]2OC(=O)[C@]3(CC(c4c(F)c(F)c(F)c(F)c4F)=NO3)[C@H]2[C@@H]1OC(C)=O	92.2	–
5.55	C=C1C(=O)O[C@@H]2C[C@@]3(C)O[C@@]3([C@@H](C)CCCOC(C)=O)[C@@H](OC(C)=O)[C@H]12	89.5	–
5.42	C=C1C(=O)O[C@H]2[C@@H]1[C@H](OC(C)=O)C([C@@H](C)CCCOC(C)=O)=C(C)[C@H]2N	90.9	–
4.80	CC(=O)OCCC[C@H](C)C1=C(C)C[C@H]2OC(=O)C(Cc3ccc(O)cc3)=C2[C@@H]1O	90.1	–
5.70	C=C1C(=O)O[C@@H]2C=C(C)C(Cl)([C@@H](C)CCCOC(C)=O)[C@@H](OC(C)=O)[C@H]12 (stereo partly specified)	90.8	–
< 4.30	CC(=O)OCCC[C@H](C)C1=C(C)C[C@H]2OC(=O)[C@]3(CC(c4ccccc4[N+](=O)[O-])=NO3)[C@H]2[C@@H]1OC(C)=O	97.1	–
4.90	C=C1C(=O)O[C@@H]2CC(C)=C([C@@H](C)CCCOC(C)=O)[C@@H](O)[C@H]12	99.5	Papp at 10 h [5]: 7.5 ×10⁻⁶ cm/s
4.54	CC(=O)OCCC[C@H](C)C1=C(C)C[C@H]2OC(=O)[C@]3(CC(c4ccc(N(C)C)cc4)=NO3)[C@H]2[C@@H]1OC(C)=O	9	–
4.95	C=C1C(=O)O[C@H]2[C@@H]1[C@H](OC(C)=O)C([C@@H](C)CCCOC(C)=O)=C(CBr)[C@@H]2Br	96	–
4.84	C=C1C(=O)O[C@@H]2CC(CN(CC)CC)=C([C@@H](C)CCCOC(C)=O)[C@@H](OC(C)=O)[C@H]12	94.1	–
5.04	C=C1C(=O)O[C@H]2[C@@H]1[C@H](OC(C)=O)C([C@@H](C)CCCOC(C)=O)=C(C)[C@@H]2Br	96.1	–
6.00	C=C1C(=O)O[C@@H]2CC(=C)C(Cl)([C@@H](C)CCCOC(C)=O)[C@@H](OC(C)=O)[C@H]12 (stereo partly specified)	90.9	–
4.52	C=C1C(=O)O[C@@H]2CC(CN3CCCC3)=C([C@@H](C)CCCOC(C)=O)[C@@H](OC(C)=O)[C@H]12	95.2	–
< 4.30	COc1ccccc1C1=NO[C@]2(C1)C(=O)O[C@@H]1CC(C)=C([C@@H](C)CCCOC(C)=O)[C@@H](OC(C)=O)[C@@H]12	99.2	–
5.17	C=C1C(=O)O[C@H]2[C@@H]1[C@H](OC(C)=O)C([C@@H](C)CCCOC(C)=O)=C(C)[C@H]2N=[N+]=[N-]	93.2	–

SMILES	pEC50 [1]	Activity (BV-2 [2]) [%]	further results
O=c1c(O)c(-c2ccc(O)c(O)c2)oc2cc(O)cc(O)c12 [QUERCETIN]	4.98	98.1	–
